Results on 29 compounds are retold here after US8987250B2 (Gilead Sciences, Inc., priority 2012, dated 2015).

The assay relates to HIV-IIIb. The experiment in a line: Test A: Antiviral Assay in MT4 Cells. The assay is classed as cell-based. The following applies: Human immunodeficiency virus 1, IIIB, MT4, 120 h, MT-4 cells infected with HIV-IIIb, 5 days of incubation, CellTiter-Glo, read-out: EC50. In short, it runs like this: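 MT-4 cells pre-infected with HIV-IIIb (0.004 m.o.i.) at 37 °C, then exposed to 3-fold serial compound dilutions (10 concentrations, quadruplicate) in RPMI 1640/10% FBS. After 5 days at 37 °C, viability read by CellTiter-Glo luminescence.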
On the technique in general: Cellular ATP, detected with luciferase, serves as a proxy for viable cell number.

Read-outs that look alike come from different tables or passages of the source.

Turning to `Cc1cc2nc(-c3cncc(N4CCN(C)CC4)n3)sc2c(-c2ccc(Cl)cc2)c1[C@H](OC(C)(C)C)C(=O)O` [Compound 282, (S)-2-tert-butoxy-2-(7-(4-chlorophenyl)-5-methyl-2-(6-(4-methylpiperazin-1-yl)pyrazin-2-yl)benzo[d]thiazol-6-yl)acetic acid], the EC50 (commonly the concentration at which the effect is half-maximal) (Table 2) amounted to 3 nM. Regarding `Cc1cc2nc(-c3ccc4nc(C)n(C5CNC5)c4c3)sc2c(-c2ccc(Cl)cc2)c1[C@H](OC(C)(C)C)C(=O)O` [Compound 298, (S)-2-(2-(1-(azetidin-3-yl)-2-methyl-1H-benzo[d]imidazol-6-yl)-7-(4-chlorophenyl)-5-methylbenzo[d]thiazol-6-yl)-2-tert-butoxyacetic acid], for the setting “Table 2”, the EC50 stood at 181 nM.

Regarding `CCCn1ncc2cc(-c3nc4cc(C)c([C@H](OC(C)(C)C)C(=O)O)c(-c5ccc(Cl)cc5)c4s3)ccc21` [Compound 352], the half-maximal effective concentration (EC50) (Table 2) worked out at 29 nM.

With `Cc1cc2nc(-c3cnnc(-c4ccc5c(cnn5C)c4)c3)sc2c(-c2ccc(Cl)cc2)c1[C@H](OC(C)(C)C)C(=O)O` [Compound 201, (S)-2-tert-butoxy-2-(7-(4-chlorophenyl)-5-methyl-2-(6-(1-methyl-1H-indazol-5-yl)pyridazin-4-yl)benzo[d]thiazol-6-yl)acetic acid], the EC50 (Table 2) was found to be 7 nM.

For `Cc1cc2nc(-c3ccnc(C4CCN(C)CC4)n3)sc2c(-c2ccc(Cl)cc2)c1[C@H](OC(C)(C)C)C(=O)O` [Compound 205, (S)-2-tert-butoxy-2-(7-(4-chlorophenyl)-5-methyl-2-(2-(1-methylpiperidin-4-yl)pyrimidin-4-yl)benzo[d]thiazol-6-yl)acetic acid], the EC50 (Table 2) came out at 18 nM.

For `Cc1cc2nc(N3CCN(C)[C@H](c4ccc5c(cnn5C)c4)C3)sc2c(-c2ccc(Cl)cc2)c1[C@H](OC(C)(C)C)C(=O)O` [Compound 492, (S)-2-tert-butoxy-2-(7-(4-chlorophenyl)-5-methyl-2-((R)-4-methyl-3-(1-methyl-1H-indazol-5-yl)piperazin-1-yl)benzo[d]thiazol-6-yl)acetic acid], for the setting “Table 2”, the concentration for a half-maximal effect (EC50) was 3 nM.

Consider `Cc1cc2nc(-c3ccnc(N4CCN(C(C)C)C[C@H]4C)n3)sc2c(-c2ccc(Cl)cc2)c1[C@H](OC(C)(C)C)C(=O)O` [Compound 466, (S)-2-tert-butoxy-2-(7-(4-chlorophenyl)-2-(2-((R)-4-isopropyl-2-methylpiperazin-1-yl)pyrimidin-4-yl)-5-methylbenzo[d]thiazol-6-yl)acetic acid], for which, where the note is “Table 2”, the concentration giving a half-maximal response (EC50) was found to be 5 nM. As to `Cc1cc2nc(-c3ccnc(-c4cc(C)c5c(cnn5C)c4)c3)sc2c(-c2ccc(Cl)cc2)c1[C@H](OC(C)(C)C)C(=O)O` [Compound 215, (S)-2-tert-butoxy-2-(7-(4-chlorophenyl)-2-(2-(1,7-dimethyl-1H-indazol-5-yl)pyridin-4-yl)-5-methylbenzo[d]thiazol-6-yl)acetic acid], where the note is “Table 2”, the 50% effective concentration (EC50) was determined as 27 nM. For `Cc1cc2nc(-c3nc(N4CCN(C(C)C)CC4)cs3)sc2c(-c2ccc(Cl)cc2)c1[C@H](OC(C)(C)C)C(=O)O` [Compound 246, (S)-2-tert-butoxy-2-(7-(4-chlorophenyl)-2-(4-(4-isopropylpiperazin-1-yl)thiazol-2-yl)-5-methylbenzo[d]thiazol-6-yl)acetic acid], the EC50 (Table 2) came to 9 nM. In the case of `CCc1cnn2cc(-c3cc(-c4nc5cc(C)c([C@H](OC(C)(C)C)C(=O)O)c(-c6ccc(Cl)cc6)c5s4)ccn3)cnc12` [Compound 226, (S)-2-tert-butoxy-2-(7-(4-chlorophenyl)-2-(2-(3-ethylpyrazolo[1,5-a]pyrimidin-6-yl)pyridin-4-yl)-5-methylbenzo[d]thiazol-6-yl)acetic acid], the concentration for a half-maximal effect (EC50) (Table 2) is 36 nM. For the compound `Cc1cc2nc(-c3ccc4cnccc4c3)sc2c(-c2ccc(Cl)cc2)c1[C@H](OC(C)(C)C)C(=O)O` [Compound 427], where the note is “Table 2”, the EC50 is 14 nM. With `Cc1cc2nc(-c3cnc4c(cnn4C)c3)sc2c(-c2ccc(Cl)cc2)c1[C@H](OC(C)(C)C)C(=O)O` [Compound 116, (S)-2-tert-butoxy-2-(7-(4-chlorophenyl)-5-methyl-2-(1-methyl-1H-pyrazolo[3,4-b]pyridin-5-yl)benzo[d]thiazol-6-yl)acetic acid], for the setting “Table 1”, the EC50 worked out at 19 nM.

Turning to `Cc1cc2nc(-c3ccnc(-c4ccc5c(cnn5C(C)C)c4)c3)sc2c(-c2ccc(Cl)cc2)c1[C@H](OC(C)(C)C)C(=O)O` [Compound 374], for the setting “Table 2”, the EC50 was found to be 45 nM. On to `Cc1cc2nc(-c3ccnc(-c4ccc5[nH]ncc5c4)c3)sc2c(-c2ccc(Cl)cc2)c1[C@H](OC(C)(C)C)C(=O)O` [Compound 115, (S)-2-(2-(2-(1H-indazol-5-yl)pyridin-4-yl)-7-(4-chlorophenyl)-5-methylbenzo[d]thiazol-6-yl)-2-tert-butoxyacetic acid], for which the EC50 (Table 1) was 13 nM. Still for that read-out and setting: as for `Cc1cc2nc(N3CC(F)C3)sc2c(-c2ccc3c4c(ccnc24)CCO3)c1[C@H](OC(C)(C)C)C(=O)O` (atropisomer, axis not shown) [Compound 56, (S)-2-tert-butoxy-2-((S)-7-(2,3-dihydropyrano[4,3,2-de]quinolin-7-yl)-2-(3-fluoroazetidin-1-yl)-5-methylbenzo[d]thiazol-6-yl)acetic acid], the figure is 62.4 nM; as for `Cc1cc2nc(-c3cncc(-c4ccc5c(cnn5C)c4)c3)sc2c(-c2ccc(Cl)cc2)c1[C@H](OC(C)(C)C)C(=O)O` [Compound 114, (S)-2-tert-butoxy-2-(7-(4-chlorophenyl)-5-methyl-2-(5-(1-methyl-1H-indazol-5-yl)pyridin-3-yl)benzo[d]thiazol-6-yl)acetic acid], 13 nM. Regarding `CNc1ccc2cc(-c3cc(-c4nc5cc(C)c([C@H](OC(C)(C)C)C(=O)O)c(-c6ccc(Cl)cc6)c5s4)ccn3)ccc2n1` [Compound 192, (S)-2-tert-butoxy-2-(7-(4-chlorophenyl)-5-methyl-2-(2-(2-(methylamino)quinolin-6-yl)pyridin-4-yl)benzo[d]thiazol-6-yl)acetic acid], under “Table 2”, the EC50 was 12 nM. Same read-out and setting: the value for `Cc1cc2nc(-c3ccnc(-c4cc(C)c5nn(C)cc5c4)c3)sc2c(-c2ccc(Cl)cc2)c1[C@H](OC(C)(C)C)C(=O)O` [Compound 216, (S)-2-tert-butoxy-2-(7-(4-chlorophenyl)-2-(2-(2,7-dimethyl-2H-indazol-5-yl)pyridin-4-yl)-5-methylbenzo[d]thiazol-6-yl)acetic acid] was 15 nM. As to `Cc1cc2nc(-c3ccnc(-c4cnc5[nH]cc(C)c5c4)c3)sc2c(-c2ccc(Cl)cc2)c1[C@H](OC(C)(C)C)C(=O)O` [Compound 498, (S)-2-tert-butoxy-2-(7-(4-chlorophenyl)-5-methyl-2-(2-(3-methyl-1H-pyrrolo[2,3-b]pyridin-5-yl)pyridin-4-yl)benzo[d]thiazol-6-yl)acetic acid], the 50% effective concentration (EC50) (Table 2) is 34 nM.

With `Cc1cc2nc(-c3cccc(-c4cnn(CC(C)C)c4)c3)sc2c(-c2ccc(Cl)cc2)c1[C@H](OC(C)(C)C)C(=O)O` [Compound 147], the EC50 (Table 1) was found to be 59 nM.

As for `Cc1cc2nc(-c3cncc(N4CCN(C(C)C)CC4)c3)sc2c(-c2ccc(Cl)cc2)c1[C@H](OC(C)(C)C)C(=O)O` [Compound 481, (S)-2-tert-butoxy-2-(7-(4-chlorophenyl)-2-(5-(4-isopropylpiperazin-1-yl)pyridin-3-yl)-5-methylbenzo[d]thiazol-6-yl)acetic acid], the EC50 (Table 2) was determined as 17 nM. `Cc1cc2nc(-c3cc4cnn(C)c4cn3)sc2c(-c2ccc(Cl)cc2)c1[C@H](OC(C)(C)C)C(=O)O` [Compound 365]: the concentration giving a half-maximal response (EC50) (Table 2) was found to be 29 nM. As for `Cc1cc2nc(-c3ccnc(-c4ccc5c(c4)n(C)c(=O)n5C)c3)sc2c(-c2ccc(Cl)cc2)c1[C@H](OC(C)(C)C)C(=O)O` [Compound 183, (S)-2-tert-butoxy-2-(7-(4-chlorophenyl)-2-(2-(1,3-dimethyl-2-oxo-2,3-dihydro-1H-benzo[d]imidazol-5-yl)pyridin-4-yl)-5-methylbenzo[d]thiazol-6-yl)acetic acid], the EC50 (Table 2) was determined as 18 nM.

For `Cc1cc2nc(-n3cc(-c4ccc5c(cnn5C)c4)ccc3=O)sc2c(-c2ccc(Cl)cc2)c1[C@H](OC(C)(C)C)C(=O)O` [Compound 118, (S)-2-tert-butoxy-2-(7-(4-chlorophenyl)-5-methyl-2-(5-(1-methyl-1H-indazol-5-yl)-2-oxopyridin-1(2H)-yl)benzo[d]thiazol-6-yl)acetic acid], the EC50 (Table 1) was 101 nM. Consider `Cc1cc2nc(-c3cccc(-c4cnn(Cc5ccccc5)c4)c3)sc2c(-c2ccc(Cl)cc2)c1[C@H](OC(C)(C)C)C(=O)O` [Compound 150], for which, where the note is “Table 1”, the EC50 turned out to be 91 nM. For `Cc1cc2nc(-c3ccnc(-c4ccc(=O)[nH]c4)c3)sc2c(-c2ccc(Cl)cc2)c1[C@H](OC(C)(C)C)C(=O)O` [Compound 230, (S)-2-tert-butoxy-2-(7-(4-chlorophenyl)-5-methyl-2-(2-(6-oxo-1,6-dihydropyridin-3-yl)pyridin-4-yl)benzo[d]thiazol-6-yl)acetic acid], where the note is “Table 2”, the EC50 was determined as 131 nM. For the compound `Cc1cc2nc(-c3ccc4c(c3)c(-c3ccccn3)nn4C)sc2c(-c2ccc(Cl)cc2)c1[C@H](OC(C)(C)C)C(=O)O` [Compound 214, (S)-2-tert-butoxy-2-(7-(4-chlorophenyl)-5-methyl-2-(1-methyl-3-(pyridin-2-yl)-1H-indazol-5-yl)benzo[d]thiazol-6-yl)acetic acid], under “Table 2”, the EC50 was 17 nM. As to `COc1ncc(-c2cccc(-c3nc4cc(C)c([C@H](OC(C)(C)C)C(=O)O)c(-c5ccc(Cl)cc5)c4s3)c2)cn1` [Compound 143], the concentration for a half-maximal effect (EC50) (Table 1) is 24 nM.

As to `Cc1cc2nc(-c3ccc4nn(C5COC5)cc4c3)sc2c(-c2ccc(Cl)cc2)c1[C@H](OC(C)(C)C)C(=O)O` [Compound 328, (S)-2-tert-butoxy-2-(7-(4-chlorophenyl)-5-methyl-2-(2-(oxetan-3-yl)-2H-indazol-5-yl)benzo[d]thiazol-6-yl)acetic acid], the EC50 (Table 2) was determined as 44 nM.
